Data on 16 compounds can be found in patent US7507748B2, “Substituted aryl-amine derivatives and methods of use” (Amgen Inc., priority 2004, dated 2009).

The test system of this assay is Human Umbilical Vein Endothelial cells. Briefly: VEGF-stimulated HUVEC proliferation assay. Type of assay: cell-based. As to conditions: 72 h, CyQuant, read-out: inhibited VEGF-stimulated HUVEC proliferation at a level. The protocol:
Human Umbilical Vein Endothelial cells are purchased from Clonetics, Inc., as cryopreserved cells harvested from a pool of donors. These cells, at passage 1, are thawed and expanded in EBM-2 complete medium, until passage 2 or 3. The cells are trypsinized, washed in DMEM+10% FBS+antibiotics, and spun at 1000 rpm for 10 min. Prior to centrifugation of the cells, a small amount is collected for a cell count. After centrifugation, the medium is discarded, and the cells are resuspended in the appropriate volume of DMEM+10% FBS+antibiotics to achieve a concentration of 3×10^5 cells/mL. Another cell count is performed to confirm the cell concentration. The cells are diluted to 3×10^4 cells/mL in DMEM+10% FBS+antibiotics, and 100 μL of cells are added to a 96-well plate. The cells are incubated at 37° C. for 22 h.
Prior to the completion of the incubation period, compound dilutions are prepared. Five-point, five-fold serial dilutions are prepared in DMSO, at concentrations 400-fold greater than the final concentrations desired. 2.5 μL of each compound dilution are diluted further in a total of 1 mL DMEM+10% FBS+antibiotics (400× dilution). Medium containing 0.25% DMSO is also prepared for the 0 μM compound sample. At the 22-hour timepoint, the medium is removed from the cells, and 100 μL of each compound dilution is added. The cells are incubated at 37° C. for 2-3 h.
During the compound pre-incubation period, the growth factors are diluted to the appropriate concentrations. Solutions of DMEM+10% FBS+antibiotics, containing either VEGF or bFGF at the following concentrations: 50, 10, 2, 0.4, 0.08, and 0 ng/mL are prepared. For the compound-treated cells, solutions of VEGF at 550 ng/mL or bFGF at 220 ng/mL for 50 ng/mL or 20 ng/mL final concentrations, respectively, are prepared since 10 μL of each will be added to the cells (110 μL final volume). At the appropriate time after adding the compounds, the growth factors are added. VEGF is added to one set of plates, while bFGF is added to another set of plates. For the growth factor control curves, the media on wells B4-G6 of plates 1 and 2 are replaced with media containing VEGF or bFGF at the varying concentrations (50-0 ng/mL). The cells are incubated at 37° C. for an additional 72 h.
At the completion of the 72 h incubation period, the medium is removed, and the cells are washed twice with PBS. After the second wash with PBS, the plates are tapped gently to remove excess PBS, and the cells are placed at −70° C. for at least 30 min. The cells are thawed and analyzed using the CyQuant fluorescent dye (Molecular Probes C-7026), following the manufacturer's recommendations. The plates are read on a Victor/Wallac 1420 workstation at 485 nm/530 nm (excitation/emission). Raw data are collected and analyzed using a 4-parameter fit equation in XLFit. IC50 values are then determined.
For the compound `CC(=O)N1CC(C)(C)c2ccc(NC(=O)c3cccnc3Nc3ccc4ccncc4c3)cc21` [Example 31, N-(1-Acetyl-3,3-dimethyl-2,3-dihydro-1H-indol-6-yl)-2-(isoquinolin-7-ylamino)-nicotinamide], the IC50 was under 1000 nM.

Turning to `Cc1nc2cc(NC(=O)c3cccnc3Nc3ccc4[nH]nnc4c3)ccc2s1` [Example 23, 2-(1H-Benzotriazol-5-ylamino)-N-(2-methyl-benzothiazol-5-yl)-nicotinamide], the IC50 is under 1000 nM.

With `CC1(C)CNCc2cc(NC(=O)c3cccnc3Nc3cccc4cnccc34)ccc21` [Example 69, N-(4,4-Dimethyl-1,2,3,4-tetrahydro-isoquinolin-7-yl)-2-(isoquinolin-5-ylamino)-nicotinamide], the IC50 is under 1000 nM.

On to `CC1(C)CNCc2cc(NC(=O)c3ccccc3Nc3ccc4ccncc4n3)ccc21` [Example 77, N-(4,4-Dimethyl-1,2,3,4-tetrahydro-isoquinolin-7-yl)-2-([1,7]naphthyridin-2-ylamino)-benzamide], for which the IC50 is under 1000 nM.

For `CC(C)(C)OC(=O)NCC(=O)N1Cc2cc(NC(=O)c3cccnc3Nc3ccc4ccncc4c3)ccc2C(C)(C)C1` [Example 73, [2-(7-{[2-(Isoquinolin-7-ylamino)-pyridine-3-carbonyl]-amino}-4,4-dimethyl-3,4-dihydro-1H-isoquinolin-2-yl)-2-oxo-ethyl]-carbamic acid tert-butyl ester], the IC50 is under 1000 nM.

As for `Nc1ncc2cc(Nc3ncccc3C(=O)Nc3ccc(Cl)cc3)ccc2n1` [Example 65, 2-(2-aminoquinazolin-6-ylamino)-N-(4-chlorophenyl)nicotinamide], the IC50 was under 1000 nM.

Consider `CC1(C)CNCc2cc(NC(=O)c3cccnc3Nc3ccc4ccncc4c3)ccc21` [Example 41, N-(4,4-Dimethyl-1,2,3,4-tetrahydro-isoquinolin-7-yl)-2-(isoquinolin-7-ylamino)-nicotinamide], for which the IC50 was under 1000 nM.

With `CC(C)(C)c1cc(NC(=O)c2cccnc2Nc2ccc3ncncc3c2)on1` [Example 50, N-(3-tert-Butyl-isoxazol-5-yl)-2-(quinazolin-6-ylamino)-nicotinamide], the IC50 is under 1000 nM.

As for `CC(C)(C)c1ccc(NC(=O)c2cccnc2Nc2ccc3ncncc3c2)cc1` [Example 56, N-(4-tert-Butyl-phenyl)-2-(quinazolin-6-ylamino)-nicotinamide], the IC50 was under 1000 nM.

In the case of `CC1(C)CC(=O)Nc2cc(NC(=O)c3cccnc3Nc3ccc4ccncc4c3)ccc21` [Example 54, N-(4,4-Dimethyl-2-oxo-1,2,3,4-tetrahydro-quinolin-7-yl)-2-(isoquinolin-7-ylamino)-nicotinamide], the IC50 is under 1000 nM.

Take `CC1(C)CC(=O)Nc2cc(NC(=O)c3cccnc3Nc3ccc4[nH]nnc4c3)ccc21` [Example 24, 2-(1H-1,2,3-benzotriazol-5-ylamino)-N-(4,4-dimethyl-2-oxo-1,2,3,4-tetrahydroquinolin-7-yl)nicotinamide]: the IC50 was under 1000 nM.

`CC1(C)CNCc2cc(NC(=O)c3cccnc3Nc3cnc4ccncc4c3)ccc21` [Example 37, N-(4,4-Dimethyl-1,2,3,4-tetrahydro-isoquinolin-7-yl)-2-([1,6]naphthyridin-3-ylamino)-nicotinamide]: the IC50 was under 1000 nM.

On to `CC(C)(C)c1ccc(NC(=O)c2ccccc2Nc2ccc3ccncc3c2)cc1` [Example 27, N-(4-tert-Butyl-phenyl)-2-(isoquinolin-7-ylamino)-benzamide], for which the IC50 was under 1000 nM.

`CC1(C)CNc2cc(NC(=O)c3cccnc3Nc3cccc4cnccc34)ccc21` [Example 70, N-(3,3-Dimethyl-2,3-dihydro-1H-indol-6-yl)-2-(isoquinolin-5-ylamino)-nicotinamide]: the IC50 is under 1000 nM.

With `CC1(C)CC(=O)Nc2nc(NC(=O)c3cccnc3Nc3ccc4ccncc4c3)ccc21` [Example 58, N-(5,5-dimethyl-7-oxo-5,6,7,8-tetrahydro-1,8-naphthyridin-2-yl)-2-(isoquinolin-7-ylamino)nicotinamide], the IC50 was under 1000 nM.

Consider `O=C(Nc1cc(OCC2CCCO2)cc(C(F)(F)F)c1)c1cccnc1Nc1ccc2ccncc2c1` (stereo not shown) [Example 40], for which the IC50 was under 1000 nM.
